Drawing on US10562909B2, “Fused quadracyclic compounds, compositions and uses thereof” (Tabomedex Biosciences, LLC, priority 2016, dated 2020), this text covers IC50 for 26 compounds.

Chain of MAPKAPK2 (P49137 whole entry, species assumed): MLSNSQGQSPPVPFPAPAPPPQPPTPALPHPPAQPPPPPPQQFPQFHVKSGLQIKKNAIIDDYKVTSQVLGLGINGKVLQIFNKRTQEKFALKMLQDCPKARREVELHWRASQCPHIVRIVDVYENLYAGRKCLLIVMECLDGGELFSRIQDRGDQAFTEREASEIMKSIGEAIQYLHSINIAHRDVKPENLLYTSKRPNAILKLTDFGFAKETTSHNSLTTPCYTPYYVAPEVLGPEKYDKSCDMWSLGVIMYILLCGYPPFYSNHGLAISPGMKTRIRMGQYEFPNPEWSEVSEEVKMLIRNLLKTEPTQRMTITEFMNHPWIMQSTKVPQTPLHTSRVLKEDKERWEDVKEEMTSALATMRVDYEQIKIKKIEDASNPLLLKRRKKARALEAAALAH

The target in this assay is MAPKAPK2 (Homo sapiens, UniProt P49137). Nature of the assay: MK2 Enzymatic Assay. The class given is biochemical. The conditions noted are these: 0.5 nM MAPKAPK2, 3 μM ATP, 2 μM Ser/Thr4 peptide, 23° C., values given as concentration bins. How it is done:
Briefly, 5 μL of 2× (4 μM) 100% phosphorylation peptide was delivered into the control wells of a 384-well assay plate. 5 μL of 2× (1 nM) MAPKAPK2 and 2× peptide (4 μM) mixture in assay buffer was dispensed to remaining columns of assay plate using Eppendorf electronic multiple channel pipette. The assay plate was incubated for 20 minutes. 5 μL of 2× ATP (6 μM) in assay buffer was dispensed to each well and then the assay plate was lightly centrifuged. The assay plate was incubated for an additional 120 minutes.
5 μL of development reagent A was dispensed to all wells using Eppendorf electronic multiple channel pipette. After incubating the development reaction for 120 min, plates were read on a Perkin Elmer Envision instrument.
Percent phosphorylation was calculated using the following formula:
[formula] Where • C100%=Average Coumarin emission signal of the 100% Phos. Control • C0%=Average Coumarin emission signal of the 0% Phos. Control • F100%=Average Fluorescein emission signal of the 100% Phos. Control • F0%=Average Flurescein emission signal of the 0% Phos. Control
In the case of `NC[C@H]1CCN(c2ccc3c(c2)Cn2cc(-c4ccc(F)cc4)cc2-c2nncn2-3)C1` [Compound 334, (R)-(1-(12-(4-fluorophenyl)-9H-benzo[e]pyrrolo[1,2-a][1,2,4]triazolo[3,4-c][1,4]diazepin-7-yl)pyrrolidin-3-yl)methanamine], the IC50 (in general, the concentration at which inhibition is half-maximal) was less than 50 nM. On to `CN(C)C[C@@H]1CCN(c2ccc3c(c2)Cn2c(cc(-c4ccc(C#N)cc4)c2Cl)-c2nncn2-3)C1` [Compound 170, (S)-4-(11-chloro-7-(3-((dimethylamino)methyl)pyrrolidin-1-yl)-9H-benzo[e]pyrrolo[1,2-a] [1,2,4]triazolo[3,4-c][1,4]diazepin-12-yl)benzonitrile], for which the IC50 lay in the range of 50 to 100 nM. The value for `Cc1cc(N2C[C@@H](CN(C)C)[C@H](O)C2)cc2c1-n1ccnc1-c1cc(-c3ccc(F)cc3)cn1C2` [Compound 512, (3S,4R)-4-((dimethylamino)methyl)-1-(12-(4-fluorophenyl)-5-methyl-9H-benzo[e]imidazo[2,1-c]pyrrolo[1,2-a][1,4]diazepin-7-yl)pyrrolidin-3-ol] was 500 to 1000 nM. Compound `CN(C)C[C@H]1CN(c2ccc3c(c2)Cn2cc(-c4ccc(C#N)cc4)cc2-c2nncn2-3)C[C@@H]1O` [Compound 109, 4-(7-((3S,4R)-3-((dimethylamino)methyl)-4-hydroxypyrrolidin-1-yl)-9H-benzo[e]pyrrolo[1,2-a][1,2,4]triazolo[3,4-c][1,4]diazepin-12-yl)benzonitrile] yielded an IC50 of less than 50 nM.

In turn, `CNCC1CN(c2cc3c(cn2)-n2cnnc2-c2cc(-c4ccc(C#N)cc4)cn2C3)C1` [Compound 315, 4-(7-(3-((methylamino)methyl)azetidin-1-yl)-9H-pyrido[3,4-e]pyrrolo[1,2-a][1,2,4]triazolo[3,4-c][1,4]diazepin-12-yl)benzonitrile] had a half-inhibitory concentration (IC50) of 100 to 200 nM. The value for `CC(C)(CO)NC[C@@H]1CCN(c2ccc3c(c2)Cn2cc(-c4ccc(F)cc4)cc2-c2nccn2-3)C1` [Compound 360, (S)-2-(((1-(12-(4-fluorophenyl)-9H-benzo[e]imidazo[2,1-c]pyrrolo[1,2-a][1,4]diazepin-7-yl)pyrrolidin-3-yl)methyl)amino)-2-methylpropan-1-ol] was less than 50 nM; that for `O=C(O)CN1CC2(CCN(c3ccc4c(c3)Cn3cc(-c5ccc(F)cc5)cc3-c3nccn3-4)C2)C1` [Compound 478, 2-(6-(12-(4-fluorophenyl)-9H-benzo[e]imidazo[2,1-c]pyrrolo[1,2-a][1,4]diazepin-7-yl)-2,6-diazaspiro[3.4]octan-2-yl)acetic acid] was 100 to 200 nM.

Turning to `CN(C)CCC1CCN(c2ccc3c(c2)Cn2cc(-c4ccc(F)cc4)cc2-c2nccn2-3)C1` (centres unmarked) [Compound 488, 2-(1-(12-(4-fluorophenyl)-9H-benzo[e]imidazo[2,1-c]pyrrolo[1,2-a][1,4]diazepin-7-yl)pyrrolidin-3-yl)-N,N-dimethylethanamine], the concentration for half-maximal inhibition (IC50) is less than 50 nM.

`C[C@H](CO)NC[C@H]1CCN(c2ccc3c(n2)Cn2cc(-c4ccc(F)cc4)cc2-c2nccn2-3)C1` [Compound 434, (R)-2-((((R)-1-(12-(4-fluorophenyl)-9H-imidazo[2,1-c]pyrido[3,2-e]pyrrolo[1,2-a][1,4]diazepin-7-yl)pyrrolidin-3-yl)methyl)amino)propan-1-ol] returned an IC50 of less than 50 nM. `CN(C)[C@@H]1CN(c2ccc3c(c2)Cn2cc(-c4ccc(C#N)cc4)cc2-c2nccn2-3)C[C@@H]1O` [Compound 134, 4-(7-((3R,4S)-3-(dimethylamino)-4-hydroxypyrrolidin-1-yl)-9H-benzo[e]imidazo[2,1-c]pyrrolo[1,2-a][1,4]diazepin-12-yl)benzonitrile] showed an IC50 of less than 50 nM. `Fc1ccc(-c2cc3n(c2)Cc2cc(N4CCC5(CNC5)C4)ccc2-n2nnnc2-3)cc1` [Compound 398, 12-(4-fluorophenyl)-7-(2,6-diazaspiro[3.4]octan-6-yl)-9H-benzo[e]pyrrolo[1,2-a]tetrazolo[5,1-c][1,4]diazepine]: the IC50 is less than 50 nM. Next, `CN(C)C[C@@H]1CN(c2ccc3c(c2)Cn2cc(-c4ccc(F)cc4)cc2-c2ncnn2-3)C[C@H]1O` [Compound 422, (3S,4R)-4-((dimethylamino)methyl)-1-(12-(4-fluorophenyl)-9H-benzo[e]pyrrolo[1,2-a][1,2,4]triazolo[5,1-c][1,4]diazepin-7-yl)pyrrolidin-3-ol]: less than 50 nM. The value for `CN(C)C1CN(c2ccc3c(c2)Cn2cc(-c4ccc(C#N)cc4)cc2-c2nnnn2-3)C1` [Compound 235, 4-(7-(3-(dimethylamino)azetidin-1-yl)-9H-benzo[e]pyrrolo[1,2-a]tetrazolo[5,1-c][1,4]diazepin-12-yl)benzonitrile] was 100 to 200 nM; that for `C[C@@H]1CN(c2ccc3c(c2)Cn2cc(-c4ccc(F)cc4)cc2-c2nnnn2-3)C[C@H](C)N1` [Compound 395, 7-(cis-3,5-dimethylpiperazin-1-yl)-12-(4-fluorophenyl)-9H-benzo[e]pyrrolo[1,2-a]tetrazolo[5,1-c][1,4]diazepine] was less than 50 nM. Next, `C[C@H](CO)NC[C@H]1CCN(c2cc3c(cn2)-n2ccnc2-c2cc(-c4ccc(F)cc4)cn2C3)C1` [Compound 442, (R)-2-((((R)-1-(12-(4-fluorophenyl)-9H-imidazo[2,1-c]pyrido[3,4-e]pyrrolo[1,2-a][1,4]diazepin-7-yl)pyrrolidin-3-yl)methyl)amino)propan-1-ol]: 100 to 200 nM; `O[C@H]1CN(c2ccc3c(c2)Cn2cc(-c4ccc(F)cc4)cc2-c2nccn2-3)C[C@@H]1CN1CCCC1` [Compound 470, (3R,4S)-1-(12-(4-fluorophenyl)-9H-benzo[e]imidazo[2,1-c]pyrrolo[1,2-a][1,4]diazepin-7-yl)-4-(pyrrolidin-1-ylmethyl)pyrrolidin-3-ol]: less than 50 nM. Consider `CN(C)[C@@H]1CN(c2ccc3c(c2)Cn2cc(-c4ccc(C#N)cc4)cc2-c2nncn2-3)C[C@H]1O` (racemic) [Compound 57, 4-(7-(trans-3-(dimethylamino)-4-hydroxypyrrolidin-1-yl)-9H-benzo[e]pyrrolo[1,2-a][1,2,4]triazolo[3,4-c][1,4]diazepin-12-yl)benzonitrile], for which the IC50 is less than 50 nM. The value for `NCC[C@H]1CN(c2ccc3c(c2)Cn2cc(-c4ccc(F)cc4)cc2-c2nccn2-3)C[C@@H]1O` (relative stereo) [Compound 492, Trans-4-(2-aminoethyl)-1-(12-(4-fluorophenyl)-9H-benzo[e]imidazo[2,1-c]pyrrolo[1,2-a][1,4]diazepin-7-yl)pyrrolidin-3-ol] was less than 50 nM; that for `CNCCC1CCN(c2ccc3c(c2)Cn2cc(-c4ccc(F)cc4)cc2-c2nccn2-3)C1` (centres unmarked) [Compound 487, 2-(1-(12-(4-fluorophenyl)-9H-benzo[e]imidazo[2,1-c]pyrrolo[1,2-a][1,4]diazepin-7-yl)pyrrolidin-3-yl)-N-methylethanamine] was less than 50 nM; that for `CN(C)C[C@H]1CN(c2ccc3c(c2)Cn2cc(-c4ccc(F)cc4)cc2-c2ncnn2-3)C[C@H]1F` [Compound 498, 1-((3S,4S)-4-fluoro-1-(12-(4-fluorophenyl)-9H-benzo[e]pyrrolo[1,2-a][1,2,4]triazolo[5,1-c][1,4]diazepin-7-yl)pyrrolidin-3-yl)-N,N-dimethylmethanamine] was less than 50 nM.

The compound `CN(C)C[C@H]1CN(c2ccc3c(c2)Cn2cc(-c4ccc(F)cc4)cc2-c2ncnn2-3)C[C@H]1O` [Compound 415, (3S,4S)-4-((dimethylamino)methyl)-1-(12-(4-fluorophenyl)-9H-benzo[e]pyrrolo[1,2-a][1,2,4]triazolo[5,1-c][1,4]diazepin-7-yl)pyrrolidin-3-ol] displayed an IC50 of 100 to 200 nM. The value for `CN1CC2(CCN(c3ccc4c(n3)Cn3cc(-c5ccc(F)cc5)cc3-c3nccn3-4)C2)C1` [Compound 441, 12-(4-fluorophenyl)-7-(2-methyl-2,6-diazaspiro[3.4]octan-6-yl)-9H-imidazo[2,1-c]pyrido[3,2-e]pyrrolo[1,2-a][1,4]diazepine] was less than 50 nM; that for `CN(C)C[C@@H]1CCN(c2ccc3c(c2)Cn2cc(-c4ccc(F)cc4)cc2-c2ncnn2-3)C1` [Compound 413, (S)-1-(1-(12-(4-fluorophenyl)-9H-benzo[e]pyrrolo[1,2-a][1,2,4]triazolo[5,1-c][1,4]diazepin-7-yl)pyrrolidin-3-yl)-N,N-dimethylmethanamine] was less than 50 nM; that for `CN(C)C[C@H]1CN(c2ccc3c(n2)Cn2cc(-c4ccc(F)cc4)cc2-c2ncnn2-3)C[C@H]1O` [Compound 429, (3S,4S)-4-((dimethylamino)methyl)-1-(12-(4-fluorophenyl)-9H-imidazo[2,1-c]pyrido[3,2-e]pyrrolo[1,2-a][1,4]diazepin-7-yl)pyrrolidin-3-ol] was less than 50 nM. The value for `Fc1ccc(-c2cc3n(c2)Cc2nc(N4CCC5(CNC5)C4)ccc2-n2ccnc2-3)cc1` [Compound 440, 12-(4-fluorophenyl)-7-(2,6-diazaspiro[3.4]octan-6-yl)-9H-imidazo[2,1-c]pyrido[3,2-e] pyrrolo[1,2-a][1,4]diazepine] was less than 50 nM; that for `CCNC[C@@H]1CCN(c2ccc3c(c2)Cn2cc(-c4ccc(F)cc4)cc2-c2nccn2-3)C1` [Compound 464, (S)—N-((1-(12-(4-fluorophenyl)-9H-benzo[e]imidazo[2,1-c]pyrrolo[1,2-a][1,4]diazepin-7-yl)pyrrolidin-3-yl)methyl)ethanamine] was less than 50 nM.
